Experimental findings from US12466821B2 (Novartis AG, priority 2018, dated 2025) are described below.

Broadly, the pIC50 is −log10 of the IC50, conventionally taken in molar units. As a reminder, the pEC50 is the EC50 on a negative log10 scale, so that one unit is a factor of ten.

pEC50, pIC50: −log10 of the molar value.

For assay [1], the target named is human CMV DNA polymerase UL54 (Human cytomegalovirus (strain AD169) (HHV-5) (Human herpesvirus 5), UniProt P08546). As to the kind of experiment: CMV polymerase biochemical assay (molecular beacon-based). The essentials:
(§1)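 Readout was beacon fluorescence (ex 480, em 535 nm), used to derive IC50. Each dNTP was at 1.25 uM, with 200 nM primer and 100 nM beacon, after a 30-min RT inhibitor preincubation. Enzyme was 625 pM for HSV UL30 (20 min RT reaction) or 100 pM for CMV UL54 (60 min RT), both sf9-expressed MBP fusions, in pH 7.5 Tris buffer with MgCl2.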

Assay [2] addresses human HSV DNA polymerase UL30 (Human herpesvirus 1 (strain 17) (HHV-1) (Human herpes simplex virus 1), UniProt P04293). In words: HSV polymerase biochemical assay (molecular beacon-based). The essentials: as §1
For assay [3], the system named is Luciferase-encoding HCMV, AD169 strain. In words: CMV Luciferase assay (cellular herpesvirus replication). Conditions: Human betaherpesvirus 5, AD169, read-out: CMV-Luc Cellular EC50. It is filed as cell-based. In a few lines:
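Neonatal human dermal fibroblasts were pretreated 1 h with compound (final 0.0159–50 μM or 0.00318–10 μM, 0.5% DMSO), then infected at MOI 1 with AD169 carrying pp28-promoter luciferase. After 72 h at 37 °C, Renilla-Glo luminescence normalized to no-virus and virus-only controls; EC50 by 4-parameter logistic model.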

Regarding `CS(=O)(=O)CCCN1CCn2c(ccc(C(=O)NCc3ccc(Cl)cc3)c2=O)C1=O` [Example 52], the pIC50 is 6.79 in assay [1] and 6.10 in assay [2]. In assay [3], the pEC50 is 5.53.
With `O=C(NCc1ccc(Cl)cc1)c1ccc2n(c1=O)CCN(C1CCS(=O)(=O)C1)C2=O` (stereo not drawn) [Example 53-1], the pIC50 in assay [1] is 6.14; in assay [2] it was 5.35. Moreover, in assay [3], the pEC50 was 4.95.
For `CCS(=O)(=O)CCN1CCn2c(ccc(C(=O)NCc3ccc(Cl)cc3)c2=O)C1=O` [Example 53], in that order: 6.83, 6.44 and 5.84.
For `CN(CCN1CCn2c(ccc(C(=O)NCc3ccc(Cl)cc3)c2=O)C1=O)C(=O)OC(C)(C)C` [Example 54, tert-butyl (2-(7-((4-chlorobenzyl)carbamoyl)-1,6-dioxo-3,4-dihydro-1H-pyrido[1,2-a]pyrazin-2(6H)-yl)ethyl)(methyl)carbamate], in that order: 6.53, 5.71 and 5.36.
`COCCN1CCn2c(ccc(C(=O)NCc3ccc(Cl)cc3)c2=O)C1=O` [Example 55]: the pIC50 in assay [1] is 6.15; in assay [2], 4.94. In addition, the pEC50 in assay [3] is 5.17.
In the same order, the values of `O=C(NCc1ccc(Cl)cc1)c1ccc2n(c1=O)CCN(CCN1CCCC1=O)C2=O` [Example 56] are 6.51, 5.32 and 5.42.
For `CC1(CN2CCn3c(ccc(C(=O)NCc4ccc(Cl)cc4)c3=O)C2=O)COC1` [Example 57-1], in that order: 5.58, 4.50 and 4.53.
In the same order, the values of `O=C(NCc1ccc(Cl)cc1)c1ccc2n(c1=O)CCN(CCN1CCCCC1=O)C2=O` [Example 57] are 6.43, 5.21 and 5.14.
For the molecule `CN(CCN1CCn2c(ccc(C(=O)NCc3ccc(Cl)cc3)c2=O)C1=O)S(C)(=O)=O` [Example 58, N-(4-chlorobenzyl)-2-(2-(N-methylmethylsulfonamido)ethyl)-1,6-dioxo-2,3,4,6-tetrahydro-1H-pyrido[1,2-a]pyrazine-7-carboxamide], the figures for the pIC50 in assay [1] and in assay [2] were 7.12 and 6.07, respectively. Also, the pEC50 in assay [3] was 6.05.
For `CCS(=O)(=O)N(C)CCN1CCn2c(ccc(C(=O)NCc3ccc(Cl)cc3)c2=O)C1=O` [Example 59], in that order: 6.86, 5.83 and 5.79.
Turning to `CN(CCN1CCn2c(ccc(C(=O)NCc3ccc(Cl)cc3)c2=O)C1=O)S(=O)(=O)C1CC1` [Example 60], the pIC50 in assay [1] was 6.91; in assay [2] it was 6.05. The pEC50 in assay [3] was 5.90.
For the molecule `COC(=O)N(C)CCN1CCn2c(ccc(C(=O)NCc3ccc(Cl)cc3)c2=O)C1=O` [Example 61-1], the pIC50 in assay [1] was 6.13; in assay [2], 4.97. Moreover, the pEC50 in assay [3] was 5.30.
In the same order, the values of `CC(=O)N(C)CCN1CCn2c(ccc(C(=O)NCc3ccc(Cl)cc3)c2=O)C1=O` [Example 61] are 6.44, 5.25 and 5.20.
`CS(=O)(=O)NCCN1CCn2c(ccc(C(=O)NCc3ccc(Cl)cc3)c2=O)C1=O` [Example 62, N-(4-chlorobenzyl)-2-(2-(methylsulfonamido)ethyl)-1,6-dioxo-2,3,4,6-tetrahydro-1H-pyrido[1,2-a]pyrazine-7-carboxamide]: the pIC50 was 6.18 in assay [1] and 5.37 in assay [2]. Also, the pEC50 in assay [3] was 4.70.
In the same order, the values of `CS(=O)(=O)N1CCC[C@H]1CN1CCn2c(ccc(C(=O)NCc3ccc(Cl)cc3)c2=O)C1=O` [Example 63-1] are 5.85, 4.63 and 4.37.
Turning to `CS(=O)(=O)N1CCC[C@@H]1CN1CCn2c(ccc(C(=O)NCc3ccc(Cl)cc3)c2=O)C1=O` [Example 63], the pIC50 in assay [1] is 6.38; in assay [2], 4.70. Besides, the pEC50 in assay [3] was 4.91.
For `O=C(NCc1ccc(Cl)cc1)c1ccc2n(c1=O)CCN(CCN1CCCS1(=O)=O)C2=O` [Example 64, N-(4-chlorobenzyl)-2-(2-(1,1-dioxidoisothiazolidin-2-yl)ethyl)-1,6-dioxo-2,3,4,6-tetrahydro-1H-pyrido[1,2-a]pyrazine-7-carboxamide], in that order: 7.47, 6.74 and 7.02.
For `CS(=O)(=O)N1CC(CN2CCn3c(ccc(C(=O)NCc4ccc(Cl)cc4)c3=O)C2=O)C1` [Example 65], in that order: 6.21, 4.94 and 4.82.
For `Cc1cc(C(=O)NCc2ccc(Cl)cc2)c(=O)n2c1C(=O)N(CCN1CCCS1(=O)=O)CC2` [Example 66-1], in that order: 7.43, 6.90 and 6.38.
As to `CS(=O)(=O)N1CCC1CN1CCn2c(ccc(C(=O)NCc3ccc(Cl)cc3)c2=O)C1=O` (stereo not drawn) [Example 66], the results for the pIC50 in assay [1] and in assay [2] were 6.95 and 5.93, respectively. Also, in assay [3], the pEC50 is 5.82.
For `C[S+]([O-])C1(CN2CCn3c(ccc(C(=O)NCc4ccc(Cl)cc4)c3=O)C2=O)CC1` (stereo not drawn) [Example 67-1, N-(4-chlorobenzyl)-2-((1-(methylsulfinyl)cyclopropyl)methyl)-1,6-dioxo-2,3,4,6-tetrahydro-1H-pyrido[1,2-a]pyrazine-7-carboxamide], in that order: 7.24, 5.75 and 6.06.
In the same order, the values of `C[S+]([O-])C1(CN2CCn3c(ccc(C(=O)NCc4ccc(C#N)cc4)c3=O)C2=O)CC1` (stereo not drawn) [Example 68-1, N-(4-cyanobenzyl)-2-((1-(methylsulfinyl)cyclopropyl)methyl)-1,6-dioxo-2,3,4,6-tetrahydro-1H-pyrido[1,2-a]pyrazine-7-carboxamide] are 6.84, 5.42 and 5.50.
For `C[S@@+]([O-])C1(CN2CCn3c(ccc(C(=O)NCc4ccc(C#N)cc4)c3=O)C2=O)CC1` [Example 68-2], in that order: 7.21, 5.56 and 5.54.
Take `C[S@+]([O-])C1(CN2CCn3c(ccc(C(=O)NCc4ccc(C#N)cc4)c3=O)C2=O)CC1` [Example 68-3]: the values for the pIC50 in assay [1] and in assay [2] were 6.70 and 5.04, respectively. Also, in assay [3], the negative logarithm of the EC50 (pEC50) is 5.12.
In the case of `COCC1(CN2CCn3c(ccc(C(=O)NCc4ccc(Cl)cc4)c3=O)C2=O)CC1` [Example 69, N-(4-chlorobenzyl)-2-((1-(methoxymethyl)cyclopropyl)methyl)-1,6-dioxo-2,3,4,6-tetrahydro-1H-pyrido[1,2-a]pyrazine-7-carboxamide], the pIC50 in assay [1] was 6.18; in assay [2] it was 5.28. The pEC50 in assay [3] was 5.00.
In the same order, the values of `O=C(NCc1ccc(Cl)cc1)c1ccc2n(c1=O)CCN(CC1(N3CCCS3(=O)=O)CC1)C2=O` [Example 70, N-(4-chlorobenzyl)-2-((1-(1,1-dioxidoisothiazolidin-2-yl)cyclopropyl)methyl)-1,6-dioxo-2,3,4,6-tetrahydro-1H-pyrido[1,2-a]pyrazine-7-carboxamide] are 8.85, 7.55 and 7.40.
For the molecule `CN(C)S(=O)(=O)CCN1CCn2c(ccc(C(=O)NCc3ccc(Cl)cc3)c2=O)C1=O` [Example 71, N-(4-chlorobenzyl)-2-(2-(N,N-dimethylsulfamoyl)ethyl)-1,6-dioxo-2,3,4,6-tetrahydro-1H-pyrido[1,2-a]pyrazine-7-carboxamide], the pIC50 is 6.46 in assay [1] and 5.56 in assay [2]. For the same molecule, the pEC50 in assay [3] is 5.52.
For `CC(C)(C)NS(=O)(=O)C1(CN2CCn3c(ccc(C(=O)NCc4ccc(Cl)cc4)c3=O)C2=O)CC1` [Example 72-1, 2-((1-(N-(tert-butyl)sulfamoyl)cyclopropyl)methyl)-N-(4-chlorobenzyl)-1,6-dioxo-2,3,4,6-tetrahydro-1H-pyrido[1,2-a]pyrazine-7-carboxamide], in that order: 9.22, 7.63 and 7.53.
For `NS(=O)(=O)C1(CN2CCn3c(ccc(C(=O)NCc4ccc(Cl)cc4)c3=O)C2=O)CC1` [Example 72-2, N-(4-chlorobenzyl)-1,6-dioxo-2-((1-sulfamoylcyclopropyl)methyl)-2,3,4,6-tetrahydro-1H-pyrido[1,2-a]pyrazine-7-carboxamide], in that order: 8.92, 7.58 and 7.30.
Regarding `CC(=O)NS(=O)(=O)C1(CN2CCn3c(ccc(C(=O)NCc4ccc(Cl)cc4)c3=O)C2=O)CC1` [Example 72-3, 2-((1-(N-acetylsulfamoyl)cyclopropyl)methyl)-N-(4-chlorobenzyl)-1,6-dioxo-2,3,4,6-tetrahydro-1H-pyrido[1,2-a]pyrazine-7-carboxamide], the pIC50 in assay [1] was 9.10; in assay [2], 7.51. Besides, the pEC50 in assay [3] was 6.09.
For `CC(C)(C)NS(=O)(=O)C1(CN2CCn3c(ccc(C(=O)NCc4ccc(C#N)cc4)c3=O)C2=O)CC1` [Example 73-1], in that order: 8.82, 7.33 and 7.03.
